From publication PMC6078987, “Molecular insights into antibiotic resistance - how a binding protein traps albicidin” (Nature Communications, 2018)
Where “and” joins values, the source holds several entries; their conditions need not be identical. Identical values can stand only once. Entries after “also recorded” stand apart in the source; their conditions may differ.

Legend:
E. coli DH5α = experiment: Agar diffusion assay; assay type: cell-based; conditions: for neutralization of antibacterial activity by AlbAS: 40 µM compound pre-incubated with 40 µM AlbAS; for antibacterial activity in agar diffusion assay: 40 µM compound, E. coli DH5α, 18 h 37 °C
Protocol: To verify the neutralizing ability of AlbAS, AlbAL, AlbASM, AlbASCTD, or AlbASNTD against different compounds, agar diffusion assays with the respective compounds were performed. An overnight culture of E. coli DH5α was diluted to an OD600 of 0.05 with 0.75% LB-agar. The protein-albicidin reaction mixture consisted of a 1:1 mixture of 40 μM albicidin (or derivatives) with 40 μM protein (either AlbAS or its variants AlbAL, AlbASM, AlbASNTD, and AlbASCTD). The mixture was incubated for 20 min at room temperature in the dark. Reaction mixtures of 30 μL were transferred in triplicates of 2 mm holes on the inoculated agar plate. The plates were evaluated concerning growth-inhibition zone after incubation for 18 h at 37 °C.

AlbAS [1] = molecular target: T1, AlbAS (Klebsiella oxytoca, UniProt Q8KRS7); experiment: 1H-15N HSQC NMR binding assay; conditions: 15N-labeled AlbAS, 1.5-fold excess of ligand
T1 sequence (Q8KRS7 1-221): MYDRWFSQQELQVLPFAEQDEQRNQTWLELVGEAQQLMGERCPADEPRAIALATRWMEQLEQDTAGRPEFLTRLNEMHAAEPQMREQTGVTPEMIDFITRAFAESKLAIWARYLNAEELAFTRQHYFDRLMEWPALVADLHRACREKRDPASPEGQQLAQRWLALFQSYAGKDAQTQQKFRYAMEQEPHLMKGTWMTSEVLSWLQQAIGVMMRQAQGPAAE
Protocol: For binding studies with albicidin and its derivatives, each ligand was dissolved in 100% d6-DMSO and added to ^15N-labeled AlbAS or ^2H, ^15N-labeled AlbAL in 50 mM sodium hydrogen phosphate (pH 6.8), 150 mM NaCl buffer (usually 0.24 mM AlbAS or AlbAL in 85% buffer, 5% d6-DMSO, and 10% D2O) yielding a 1.5-fold excess of the ligand. After incubation for 20 min at room temperature in the dark, the sample was centrifuged at 20 000 × g for 3 min and the supernatant was transferred to a 5 mm NMR tube. The AlbAS blank sample (Supplementary Figure 14) was measured in 100% buffer without addition of ligands and DMSO. Spectra were recorded on a Bruker Avance III 700 MHz NMR spectrometer (Bruker BioSpin, Rheinstetten, Germany) with a TXI probe head. Standard Bruker pulse sequences were used. 2D ^1H-^15N HSQC spectra were recorded at 298 K with acquisition times of 90 and 22 ms for the ^1H and ^15N dimension, respectively. The experiments were accumulated with ≥16 scans depending on protein sample concentration. 2D ^1H-^15N TROSY spectra were accumulated with 256 scans and acquisition times of 90 and 22 ms for the ^1H and ^15N dimension, respectively. Several AlbAS–albicidin samples were measured with the same result and a representative spectrum is given for the figures in the main manuscript and the SI. NMR experiments with AlbAS and albicidin analogs were conducted once with accumulation of ≥16 scans depending on protein concentration. For alignment of HSQC and TROSY spectra, the TROSY spectrum was corrected by 1/2 ^1JNH in both dimensions. […]

AlbAS [2] = molecular target: T1, AlbAS; experiment: Fluorescence quenching binding assay (tryptophan fluorescence) with AlbAS; conditions: for Kd: AlbAS 20 nM, fluorescence quenching, pH 6.8
Protocol: Fluorescence quenching measurements were performed by monitoring tryptophan fluorescence of AlbAS (20 nM), AlbAL (20 nM), AlbASNTD, and AlbASCTD (100 nM) on a FluoroMax 2 spectrometer from Horiba (Potsdam, Germany). The excitation wavelength was set to λexc = 280 nm. Emission spectra were recorded from λem = 290–450 nm with a scanning speed of 1 nm s^−1 and an integration time of 1 s. The excitation and emission slit widths were set to 8 and 4 nm, respectively. Proteins were solved in 50 mM sodium phosphate buffer with 150 mM NaCl and 0.01% DMSO at pH 6.8. All measurements were performed twice and the standard deviation is given for the Kd and the Hill factor n. Data evaluation was performed by integration of the emission band (318–410 nm for AlbAS, 316–412 nm for AlbAL, and 319–390 nm for AlbASNTD and AlbASCTD) for every titration step. The area under the curve (AUC) of the buffer blank (buffer with 0.01% DMSO) was subtracted from the measured titration data. The quenching factor was determined by subtraction of AUCs for each titration step from the AUC of the protein in the absence of ligand. For determination of the AlbAS– and AlbAL–albicidin Kd values, the data were fitted to Eq. (2).2 Y=Bmax[L]^n/Kdn+[L]^n where [L], n, and Bmax denote the total ligand concentration, the Hill coefficient, and the maximum binding capacity of the protein, respectively.
For the determination of the Kd for AlbAS–compound 7 the data were fitted to Eq. (3).3 Y=Pt+L+Kd-Pt+L+Kd^2-4PtL/2 where Pt is the total protein concentration.

| SMILES | neutralization of antibacterial activity by AlbAS (E. coli DH5α) | antibacterial activity in agar diffusion assay (E. coli DH5α) | binding to AlbAS by HSQC signal pattern (in words) (AlbAS [1]) | effect on fluorescence emission of AlbAS (in words) (AlbAS [2]; AlbAS 20 nM titrated with compound) | Kd (AlbAS [2]) |
| --- | --- | --- | --- | --- | --- |
| COc1c(NC(=O)c2ccc(NC(=O)c3ccc(NC(=O)[C@H](CC#N)NC(=O)c4ccc(NC(=O)/C(C)=C/c5ccc(F)cc5)cc4)cc3)c(OC)c2O)ccc(C(=O)O)c1O [compound 1] | abolished the antibacterial activity |  |  |  |  |
| COc1c(NC(=O)c2ccc(NC(=O)c3ccc(NC(=O)[C@@H](NC(=O)c4ccc(NC(=O)c5ccc(O)cc5)cc4)[C@@H](C)O)cc3)c(OC)c2O)ccc(C(=O)O)c1O [compound 2] | confirmed binding | strongly antibacterial | characteristic HSQC signal pattern as in the case of albicidin binding; also recorded: no significant effect on AlbAS binding |  |  |
| COc1c(NC(=O)c2ccc(NC(=O)c3ccc(NC(=O)[C@@H](CC#N)NC(=O)c4ccc(NC(=O)/C(C)=C/c5ccc(O)cc5)cc4)cc3)c(OC)c2O)ccc(C(=O)O)c1O [compound 3] | prohibit its antibacterial effects; also recorded: neutralizing effect |  | still able to bind; also recorded: binding mode equivalent to that of albicidin |  |  |
| C/C(=C\c1ccc(O)cc1)C(=O)Nc1ccc(C(=O)O)cc1 [compound 4] |  | did not display antibacterial activity | weak binding | did not lead to significant quenching; also recorded: no consistent effect on fluorescence emission spectra |  |
| COc1c(NC(=O)c2ccc(NC(=O)c3ccc(N)cc3)c(OC)c2O)ccc(C(=O)O)c1O [compound 5] |  | did not display antibacterial activity | slow-exchange regime (strong binding) |  | ~55.5 nM and 55.5 nM |
| COc1c(NC(=O)c2ccc(NC(=O)[C@H](CC#N)NC(=O)c3ccc(N)cc3)cc2)ccc(C(=O)O)c1O [compound 6] |  | did not display antibacterial activity | slow-exchange regime (strong binding) |  |  |
| COC(C(N)=O)C(NC(=O)c1ccc(NC(=O)c2ccc([N+](=O)[O-])cc2)cc1)C(=O)Nc1ccc(C(=O)Nc2ccc(C(=O)Nc3ccc(C(=O)O)cc3OC(C)C)cc2OC(C)C)cc1 (centres unmarked) [compound 7] | able to neutralize the antibacterial effects of compound 7, albeit with decreased efficiency |  | strong binding of compound 7 in the nanomolar Kd range |  | 14 ± 2.9 nM |
